From patent US5013722A, “Cholecystokinin analogs for controlling appetite” (Hoffmann-LaRoche Inc., priority 1989, dated 1991) come the findings set out here.

Molecules are shown by their SMILES. Where a SMILES comes first, the peptide text is derived from it. [ ]: non-standard residue; d: D form. Thr(SO3H) = C[C@@H](OS(=O)(=O)O)[C@H](N)C(=O)O; sY = N[C@@H](Cc1ccc(OS(=O)(=O)O)cc1)C(=O)O; NMeF = CN[C@@H](Cc1ccccc1)C(=O)O

The target of series [1] is T1, receptors in rat pancreas (3H-CCK-8-(SO3 H) binding) (Rattus norvegicus, UniProt P30551).
T1 construct: receptors in homogenized preparations of rat pancreatic cells and bovine striata; from tissue; host or cells: rat pancreas homogenate (48,000 x g pellet)
T1 sequence (P30551 1-444): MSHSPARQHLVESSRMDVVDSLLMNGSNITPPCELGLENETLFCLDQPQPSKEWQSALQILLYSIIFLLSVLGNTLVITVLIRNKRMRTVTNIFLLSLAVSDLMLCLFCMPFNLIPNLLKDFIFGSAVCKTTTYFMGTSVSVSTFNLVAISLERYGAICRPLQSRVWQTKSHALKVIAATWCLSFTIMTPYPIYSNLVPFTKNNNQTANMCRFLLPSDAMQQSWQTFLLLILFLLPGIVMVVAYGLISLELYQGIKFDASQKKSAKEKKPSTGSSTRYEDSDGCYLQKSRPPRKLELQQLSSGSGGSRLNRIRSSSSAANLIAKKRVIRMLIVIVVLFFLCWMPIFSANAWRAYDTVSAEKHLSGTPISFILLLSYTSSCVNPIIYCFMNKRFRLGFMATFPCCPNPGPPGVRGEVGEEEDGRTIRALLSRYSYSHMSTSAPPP
Nature of the series: In vitro receptor binding assay, rat pancreas homogenate, 3H-CCK-8-(SO3H) radioligand. To be noted: 0.15 nM radioligand, 30 min, 25° C.; read-out: Rat Pancreas IC50 (inhibition of specific 3H-CCK-8-(SO3H) binding). Here is the method: This strategy was utilized to minimize central nervous system side effects by identifying peptides with peripheral receptor selectivity. […] The tissue was homogenized 2 x for approx. 15 sec. at 0° C. using a Polytron homogenizer at a setting of 6. The tissue was isolated by centrifugation at 48,000 x g for 10 min. at 0° C. […] Samples were incubated for 30 min. at 25° C. and the incubation terminated by pouring the mixture onto a pre-wet Whatman GF/B filter on a Sandbeck Vacuum Filtration Manifold. The incubation tubes were washed with 2×3 ml of ice-cold HEPES Buffer #2 and the wash filtered through the GF/B filter. The filter was air dried for 10 min. and then placed in a scintillation vial with 12 ml of Beckman HP/b Ready-Solv scintillation cocktail. The vials were shaken for 2 hours and then counted using a Beckman Model 7800 liquid scintillation spectrometer.

A further series deals with Male rats, food intake. Description: Two-meal feeding assay, intranasal administration. The series is classed as in vivo, rat. The note with it: for Food Intake 1st meal (%) / Food Intake 2nd meal (%): saline = 100. The procedure: Male Sprague-Dawley (CD) rats weighing 180-200 grams (Charles River Breeding Laboratories) were acclimated to a 12 h light/dark cycle (6 a.m. to 6 p.m.) in a room kept at 22° C. They were subsequently fasted for two days, weighed, placed in individual cages, and a four-day period of meal training was begun. During this time the rats were given ground laboratory chow (Purina Lab Chow) in jars for one hour from 9:00 a.m. until 10:00 a.m., the jars were removed from 10:00 a.m. to 12:00 p.m., and placed back in the cages from 12:00 until 1:00 p.m. Under this `1-2-1` meal feeding regime most rats learn to eat approximately as much Per day during the two hours they have access to food as rats which have food ad libitum over the entire 24-hour day. On the fourth day, the rats were weighed again, and any which lost more than five grams body weight were excluded from the test. The animals were then distributed into experimental (n=5 to 6) and control groups (n=6-12). but not matched for body weight.
Male rats were meal trained as described in Example 9. The peptide of Example 2 was dissolved in saline and was administered to the rats intranasally. CCK-8, dissolved in saline was used as a control.

The target of series [2] is T2, Rat kidney metalloendopeptidase (Rattus norvegicus, UniProt P07861).
T2 construct: from tissue; host or cells: rat kidney
T2 sequence (P07861 1-750): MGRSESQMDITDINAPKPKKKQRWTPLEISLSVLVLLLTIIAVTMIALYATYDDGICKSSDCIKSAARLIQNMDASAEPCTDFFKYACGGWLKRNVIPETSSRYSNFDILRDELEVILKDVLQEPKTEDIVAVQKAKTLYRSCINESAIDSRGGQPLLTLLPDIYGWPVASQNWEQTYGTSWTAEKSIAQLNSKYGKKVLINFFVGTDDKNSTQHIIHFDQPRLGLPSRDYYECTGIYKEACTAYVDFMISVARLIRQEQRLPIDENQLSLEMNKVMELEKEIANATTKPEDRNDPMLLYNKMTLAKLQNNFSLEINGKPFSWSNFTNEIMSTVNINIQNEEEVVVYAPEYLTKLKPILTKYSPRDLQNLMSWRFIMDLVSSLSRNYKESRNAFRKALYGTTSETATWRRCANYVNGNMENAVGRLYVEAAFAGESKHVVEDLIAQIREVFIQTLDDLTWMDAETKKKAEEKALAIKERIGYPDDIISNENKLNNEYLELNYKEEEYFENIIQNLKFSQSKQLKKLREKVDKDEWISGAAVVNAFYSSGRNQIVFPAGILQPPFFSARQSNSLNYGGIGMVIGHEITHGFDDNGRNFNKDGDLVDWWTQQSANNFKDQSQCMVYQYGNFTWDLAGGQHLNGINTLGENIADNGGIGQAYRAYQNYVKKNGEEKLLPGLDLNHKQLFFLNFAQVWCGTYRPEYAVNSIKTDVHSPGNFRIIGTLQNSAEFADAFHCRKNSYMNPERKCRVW
Description: Degradation by rat kidney metalloendopeptidase (HPLC). Type of series: in vitro ADME. To be noted: for % Degradation by Height: 37° C., pH 7.6. The procedure:
Rat kidney metalloendopeptidase (0.01 μg) and 5 nmol of peptide were incubated in 2 μmol tris-HCl buffer (pH 7.6) and at 37° C. for varying periods of time. The degradation of the peptide was monitored by analytical HPLC on a 5 micron Adsorbosphere-ODS column with a 0-50% CH3 CN gradient in 0.1N potassium phosphate, pH 3.0, with UV detection at 210 nm. Rates are based on presumed production of Asp-Tyr(SO3 H)-Met-Gly for CCK-8 and the presumed production of Ac-Tyr(SO3 H)-Met-Gly for Example 2 and 3.

The term IC50 denotes the concentration needed to halve the response being measured. `CSCC[C@H](NC(=O)[C@H](Cc1ccc(OS(=O)(=O)O)cc1)NC(C)=O)C(=O)NCC(=O)N[C@@H](Cc1c[nH]c2ccccc12)C(=O)N[C@@H](CCSC)C(=O)N[C@H](C(=O)N(C)[C@@H](Cc1ccccc1)C(N)=O)[C@@H](C)OS(=O)(=O)O` [Example 2, Ac-Tyr(SO3 H)-Met-Gly-Trp-Met-Thr(SO3 H)-N-methyl-Phe-NH2] (Ac-[sY]MGWM[Thr(SO3H)][NMeF]-NH2): the IC50 in series [1] came out at 2.2 nM. Moreover, the “Food Intake 1st meal Grams consumed” value with Male rats, food intake (3 μg/kg intranasal) amounted to 7.5 ± 0.8 Grams; with Male rats, food intake (10 μg/kg intranasal) it was 5.5 ± 0.6 Grams; with Male rats, food intake (30 μg/kg intranasal), 5.8 ± 0.7 Grams; in the series on Male rats, food intake (100 μg/kg intranasal) it was 3.4 ± 0.4 Grams. In addition, the “Food Intake 2nd meal Grams consumed” value with Male rats, food intake (3 μg/kg intranasal) was 6.1 ± 0.3 Grams; in the series on Male rats, food intake (10 μg/kg intranasal), 6.3 ± 0.4 Grams; in the series on Male rats, food intake (30 μg/kg intranasal) it was 4.3 ± 0.6 Grams; in the series on Male rats, food intake (100 μg/kg intranasal) it was 4.6 ± 0.5 Grams. In addition, the “Food Intake 1st meal (%)” value in the series on Male rats, food intake (3 μg/kg intranasal) is listed as 102%; with Male rats, food intake (10 μg/kg intranasal), 74%; in the series on Male rats, food intake (30 μg/kg intranasal), 78%; in the series on Male rats, food intake (100 μg/kg intranasal) it was 46%. Also, the “Food Intake 2nd meal (%)” value in the series on Male rats, food intake (3 μg/kg intranasal) is recorded as 109%; with Male rats, food intake (10 μg/kg intranasal), 112%; with Male rats, food intake (30 μg/kg intranasal), 76%; with Male rats, food intake (100 μg/kg intranasal) it was 82%. Also, the “% Degradation by Height” value in series [2] (incubation 0 min) is 0%; in series [2] (incubation 60 min) it was 19.4%; in series [2] (incubation 120 min) it was 30.3%; in series [2] (incubation 240 min), 56.4%. For the same compound, the “No. of Peaks (degradation products)” value in series [2] (incubation 240 min) is reported as 2.
